Results: US7091340B2, “Polymorphs” (Boehringer Ingelheim Pharmaceuticals, Inc., priority 2003, dated 2006)

How the values were obtained:
[1] = Microscopical solution phase transformation experiments; type: physicochemical; conditions: room temperature; Forms IV and VI compared
[2] = Solubility vs. temperature profile experiments; type: physicochemical; conditions: within the temperature range of the experiment

For Cc1ccc(-n2nc(C(C)(C)C)cc2NC(=O)Nc2ccc(OCCN3CCOCC3)c3ccccc23)cc1 [Form VI, 1-(5-tert-butyl-2-p-tolyl-2H-pyrazol-3-yl)-3-[4-(2-morpholin-4-yl-ethoxy)-naphthalen-1-yl]-urea], the “thermodynamic stability relative to Form IV” value [1] was “more thermodynamically stable at room temperature relative to Form IV”, the “thermodynamic relationship of the two forms” value [2] was “monotropically related” and the “thermodynamic stability relative to Form IV” value ([2]; Forms IV and VI compared) was “more thermodynamically stable relative to Form IV”.
